“Also recorded” adds a separate entry of the source.
Assays:
OV90 = assay: Cell viability assay (CellTiter-Blue), OV90; format: cell-based; conditions: for toxicity of the chemotherapeutic agent with ivospemin co-treatment (cell viability): OV90, 2 μM ivospemin 96 h, chemotherapeutic last 24 h
From the text: (§1) Cell lines, culture conditions, and reagents. Ovarian adenocarcinoma cell lines A2780 and ACRP were maintained in RPMI 1640 containing 10% fetal bovine serum. Ovarian adenocarcinoma lines CaOV-3 and OV90 were maintained in DMEM supplemented with 10% fetal bovine serum. ID8 mouse ovarian surface epithelial cells (MOSE) overexpressing VEGF and β-Defensin (VDID8+) were maintained in RPMI 1640 supplemented with 10% fetal bovine serum. […] All chemotherapeutics were purchased commercially from Sigma-Aldrich (St. Louis, MO).
(§2) Cell viability assays. Cells were seeded in triplicate wells per condition with a total cell count of 2×10^3 cells per well of a 96-well plate and allowed to adhere overnight. Cells then received 100 μL fresh medium with increasing concentrations of ivospemin. Following 96 hours of ivospemin monotherapy, 20 μL of CellTiter-Blue reagent (Promega, Madison, WI) was added, and following a 3-hour incubation, the fluorescence was measured in black, clear-bottom plates at 560Ex/590Em on a SpectraMax M5 (Molecular Devices, Sunnyvale CA). Wells containing medium alone were used as background controls. The combination chemotherapy/ivospemin experiment conditions were identical except following 72 hours of ivospemin exposure, cells received fresh medium with ivospemin and the appropriate chemotherapeutic. After an additional 24 hours (96 total hours of ivospemin, 24 hours of chemotherapy), cell viability was determined using the CellTiter-Blue cell viability assay. Results are presented as percentages relative to untreated cells. Each bar is an average of at least 3 independent biological experiments (each experiment is noted by an individual point).

[1] = test system: ovarian adenocarcinoma cell lines; assay: Cell viability, ovarian adenocarcinoma cell lines taken together; format: cell-based; conditions: for added in vitro toxicity/benefit of the chemotherapeutic over ivospemin (SBP-101) alone: cisplatin-sensitive and cisplatin-resistant ovarian cancer cell lines
From the text: as §1, §2
The cisplatin-sensitive ovarian adenocarcinoma lines, A2780 and OV90 (FIG. 4A), and the cisplatin-resistant ovarian adenocarcinoma lines, ACRP and CaOV-3 (FIG. 4B), were treated for 96 hours with concentrations of ivospemin ranging from 500 nM to 10 μM. […] These four ovarian adenocarcinoma lines were then treated with various chemotherapeutic agents including gemcitabine (50 nM), topotecan (50 nM), paclitaxel (2 nM) and docetaxel (2 nM). These agents represent standard of care chemotherapeutic options used with some regularity in patients with platinum-resistant ovarian cancer. Cells were treated with three increasing concentrations of each chemotherapy alone to determine an appropriate dose prior to combination studies.

SSAT = SSAT activity in treated ovarian adenocarcinoma line; format: cell-based, human; conditions: ivospemin 5 μM, doxorubicin 500 nM, 48 hours
Experimental: (§3) FIG. 11. […] The activity of the polyamine catabolic enzyme SSAT and the polyamine biosynthetic enzyme ODC was evaluated.
(§4) The activity of polyamine catabolic enzyme SSAT and polyamine biosynthetic enzyme ODC were evaluated.

[2] = test system: VDID8+ syngeneic ovarian epithelial cancer cells; assay: VDID8+ syngeneic mouse model of ovarian cancer (survival, ascites); conditions: for effect on survival as single agent / average ascites volume at first drain: monotherapy; for effect on survival as single agent: VDID8+ model; for average time between VDID8+ cell injection and ascites formation: 15% weight gain or visible abdominal swelling
Experimental: Syngeneic mouse model. Female C57BL/6J wild-type mice (7-8 weeks old, The Jackson Laboratory) were housed at the Johns Hopkins Sidney Kimmel Comprehensive Cancer Center Animal Resources Core and cared for in accordance with the policies set forth by the Johns Hopkins University Animal Care and Use Committee. VEGF-β-Defensin ID8 (VDID8+) syngeneic mouse ovarian surface epithelial cells (first developed by Dr. Katherine Roby) were injected intraperitoneally into C57BL/6 mice (350,000 cells/mouse) (Roby et al., 2000). Treatment of mice began three days following VDID8^+ injection. Mice in the combination study were treated with the following dosing schedule: 24 mg/kg ivospemin 2qw×3, alternating weeks; 30 mg/kg gemcitabine qw×4; 1 mg/kg topotecan 3qw×4. All drugs were administered intraperitoneally. Following production of palpable ascites fluid or a 15% weight gain, animals were drained of their ascites fluid, which was measured as a marker for tumor burden. Decisions for subsequent drains was determined by the same criteria. No animals were drained more than once a week, and animals who survived to a fourth drain were subsequently euthanized.
Statistical analysis. All statistical testing was completed using GraphPad Prism software (v9.5.1, La Jolla, CA). […] Multiple testing correction was performed based on the Benjamini-Hochberg method. […] All mouse survival curves were analyzed using the log-rank (Mantel-Cox) test. Mouse ascites data were analyzed by one-way ANOVA and then individual comparisons were analyzed by two-sided Welch's t-tests unless otherwise specified. Multiple testing correction was performed based on the Benjamini-Hochberg method. […] P-value indications are as follows: *<0.05; **<0.01; ***<0.001; ****<0.0001.

ODC = ODC activity in treated ovarian adenocarcinoma line; format: cell-based, human; conditions: ivospemin 5 μM, doxorubicin 500 nM, 48 hours
Experimental: as §3, §4

[3] = in vivo; cited from earlier work
tumor putrescine levels = conditions: eflornithine infusion; cited from earlier work
CaOV-3 = assay: Cell viability assay (CellTiter-Blue), CaOV-3; format: cell-based; conditions: for toxicity of the chemotherapeutic agent with ivospemin co-treatment (cell viability): CaOV-3, 2 μM ivospemin 96 h, chemotherapeutic last 24 h
From the text: as §1, §2

ACRP = assay: Cell viability assay (CellTiter-Blue), ACRP; format: cell-based; conditions: for toxicity of the chemotherapeutic agent with ivospemin co-treatment (cell viability): 2 μM ivospemin 96 h, chemotherapeutic last 24 h
From the text: as §1, §2

A2780 = assay: Cell viability assay (CellTiter-Blue), A2780; format: cell-based; conditions: for toxicity of the chemotherapeutic agent with ivospemin co-treatment (cell viability): A2780, 2 μM ivospemin 96 h, gemcitabine 50 nM, topotecan 50 nM, paclitaxel 2 nM, docetaxel 2 nM last 24 h
From the text: as §1, §2

VDID8+ cells = conditions: NSG mice

CC(=O)O[C@@]12CO[C@@H]1C[C@H](O)[C@@]1(C)C(=O)[C@H](O)C3=C(C)[C@@H](OC(=O)[C@H](O)[C@@H](NC(=O)OC(C)(C)C)c4ccccc4)C[C@@](O)([C@@H](OC(=O)c4ccccc4)[C@H]21)C3(C)C [docetaxel]
toxicity of the chemotherapeutic agent with ivospemin co-treatment (cell viability) (OV90): did not increase | added in vitro toxicity/benefit of the chemotherapeutic over ivospemin (SBP-101) alone [1]: little to no benefit; also recorded: did not have any added benefit

COc1cccc2c1C(=O)c1c(O)c3c(c(O)c1C2=O)C[C@@](O)(C(=O)CO)C[C@@H]3OC1CC(N)C(O)C(C)O1 (stereo partly drawn) [doxorubicin, (8S,10S)-10-(4-amino-5-hydroxy-6-methyl-tetrahydro-2H-pyran-2-yloxy)-6,8,11-trihydroxy-8-(2-hydroxyacetyl)-1-methoxy-7,8,9,10-tetrahydrotetracene-5,12-dione]
SSAT activity (SSAT): increases SSAT activity | median survival ([2]; ivospemin 24 mg/kg 2qw×4 alternating weeks, doxorubicin 0.5 mg/kg 2qw×4): 96 days | effect on survival as single agent [2]: significantly increased | ODC activity (ODC): does not have any effect | nausea and vomiting, share of people treated [3]: 30-90%

NCCCC(N)(C(=O)O)C(F)F (stereo not shown) [eflornithine, 2,5-diamino-2-(difluoromethyl) pentanoic acid]
decrease in tumor putrescine levels (tumor putrescine levels): 90%

Nc1ccn([C@@H]2O[C@H](CO)[C@@H](O)C2(F)F)c(=O)n1 [gemcitabine]
toxicity of the chemotherapeutic agent with ivospemin co-treatment (cell viability) (CaOV-3): significantly increased; also recorded: increased the toxicity | toxicity of the chemotherapeutic agent with ivospemin co-treatment (cell viability) (ACRP): greater toxicity than ivospemin alone; also recorded: significantly exceeded the effect of ivospemin alone | toxicity of the chemotherapeutic agent with ivospemin co-treatment (cell viability) (OV90): did increase; also recorded: increased the toxicity | average time between VDID8+ cell injection and ascites formation [2]: 41.7 days | average ascites volume at first drain [2]: 2.03 mL | effect on survival as single agent [2]: Neither gemcitabine nor topotecan produced a statistically significant survival benefit | effect on survival as single agent ([2]; listed as Gemcitabine): little effect | toxicity of the chemotherapeutic agent with ivospemin co-treatment (cell viability) (A2780): significantly exceeded the effect of ivospemin alone | added in vitro toxicity/benefit of the chemotherapeutic over ivospemin (SBP-101) alone [1]: increased ivospemin toxicity; also recorded: increased the in vitro toxicity of SBP-101

CCNCCC(O)CNCCCCNCC(O)CCNCC (stereo not shown) [ivospemin, 3,8,13,18-tetraazaicosane-6,15-diol]
IC50 (CaOV-3; Homo sapiens, ivospemin 96 hours, CaOV-3, cisplatin resistant): 2.56 µM | tumor burden and ascites formation (VDID8+ cells): Neither ivospemin alone nor the combination treatment decrease tumor burden or delayed ascites formation | IC50 (ACRP; ivospemin 96 hours, cisplatin resistant): 1.41 µM | IC50 (OV90; Homo sapiens, OV-90, ivospemin 96 hours, OV90, cisplatin sensitive): 3.24 µM | SSAT activity (SSAT): increases SSAT activity | SSAT activity (SSAT; listed as SBP-101): increase SSAT activity | average time between VDID8+ cell injection and ascites formation [2]: 39.5 days | median survival ([2]; days post-injection, ivospemin 24 mg/kg 2qw×3 alternating weeks, gemcitabine 30 mg/kg qw×4, topotecan 1 mg/kg 3qw×4, i.p.): 52 days | increase in median survival compared to untreated (control) animals ([2]; gemcitabine/topotecan combination study): 20% | average ascites volume at first drain [2]: 1.15 mL | effect on survival as single agent ([2]; listed as SBP-101): marked increase; also recorded: significantly increased | IC50 (A2780; Homo sapiens, ivospemin 96 hours, A2780, cisplatin sensitive): 0.95 µM | IC50 ([1]; 96 hours, A2780, OV90, ACRP, CaOV-3, read-out: IC50 values, all four lines): 0.95 to 3.24 µM | ODC activity (ODC): depression of ODC activity | ODC activity (ODC; listed as SBP-101): decreases ODC activity

CC(=O)O[C@H]1C(=O)[C@@]2(C)[C@H]([C@H](OC(=O)c3ccccc3)[C@]3(O)C[C@H](OC(=O)[C@H](O)[C@@H](NC(=O)c4ccccc4)c4ccccc4)C(C)=C1C3(C)C)[C@]1(OC(C)=O)CO[C@@H]1C[C@@H]2O [paclitaxel]
toxicity of the chemotherapeutic agent with ivospemin co-treatment (cell viability) (OV90): did not increase | added in vitro toxicity/benefit of the chemotherapeutic over ivospemin (SBP-101) alone [1]: little to no benefit | added in vitro toxicity/benefit of the chemotherapeutic over ivospemin (SBP-101) alone ([1]; listed as Paclitaxel): did not have any added benefit

CC[C@@]1(O)C(=O)OCc2c1cc1n(c2=O)Cc2cc3c(CN(C)C)c(O)ccc3nc2-1 [topotecan]
toxicity of the chemotherapeutic agent with ivospemin co-treatment (cell viability) (CaOV-3): significantly increased; also recorded: increased the toxicity | toxicity of the chemotherapeutic agent with ivospemin co-treatment (cell viability) (ACRP): greater toxicity than ivospemin alone; also recorded: significantly exceeded the effect of ivospemin alone | toxicity of the chemotherapeutic agent with ivospemin co-treatment (cell viability) (OV90): did increase; also recorded: increased the toxicity | average time between VDID8+ cell injection and ascites formation [2]: 43.4 days | average ascites volume at first drain [2]: 3.19 mL | effect on survival as single agent [2]: Neither gemcitabine nor topotecan produced a statistically significant survival benefit; also recorded: little effect | toxicity of the chemotherapeutic agent with ivospemin co-treatment (cell viability) (A2780): significantly exceeded the effect of ivospemin alone | added in vitro toxicity/benefit of the chemotherapeutic over ivospemin (SBP-101) alone [1]: increased ivospemin toxicity; also recorded: increased the in vitro toxicity of SBP-101

— patent US20260272966A1, “COMBINATION TREATMENT FOR OVARIAN CANCER” (THE JOHNS HOPKINS UNIVERSITY, priority 2023, published 2026)
